The results in this text go back to the NIST ThermoML archive (doi:10.1016/j.jct.2012.03.008).

± gives the expanded uncertainty stated by the source.

One may read the surface tension liquid-gas as the force per length acting along the surface.

The conditions of the series: Pendant drop shape.

For `CCn1cc[n+](C)c1.O=S(=O)([O-])C(F)(F)F` [1-ethyl-3-methylimidazolium trifluoromethanesulfonate], the surface tension liquid-gas reads like this: (298.2 K) 41.3 ± 0.5 mN/m; (308.1 K) 41 ± 0.45 mN/m; (318.1 K) 40.48 ± 0.44 mN/m; (328.4 K) 39.9 ± 0.7 mN/m; (338.3 K) 39.5 ± 0.7 mN/m; (344.9 K) 39.3 ± 0.43 mN/m.
On to `CCCCn1cc[n+](C)c1.F[B-](F)(F)F` [1-butyl-3-methylimidazolium tetrafluoroborate], for which the surface tension liquid-gas by setting is: (298 K) 45.44 ± 0.49 mN/m; (307.9 K) 44.57 ± 0.48 mN/m; (317.9 K) 43.91 ± 0.47 mN/m; (328.4 K) 43.15 ± 0.47 mN/m; (338.4 K) 42.49 ± 0.46 mN/m; (343.1 K) 42.17 ± 0.46 mN/m.
Regarding `CCCCn1cc[n+](C)c1.F[P-](F)(F)(F)(F)F` [1-butyl-3-methylimidazolium hexafluorophosphate], the surface tension liquid-gas is, setting by setting: (298.1 K) 43.81 ± 0.47 mN/m; (303.2 K) 43.44 ± 0.47 mN/m; (313.1 K) 42.72 ± 0.46 mN/m; (323.1 K) 42.19 ± 0.46 mN/m; (333.1 K) 41.61 ± 0.45 mN/m; (343.7 K) 41.07 ± 0.45 mN/m.
`CCn1cc[n+](C)c1.CS(=O)(=O)[O-]` [1-ethyl-3-methylimidazolium methanesulfonate]: the surface tension liquid-gas reads like this: (298.5 K) 50.9 ± 0.8 mN/m; (308 K) 50.3 ± 0.8 mN/m; (317.9 K) 49.7 ± 0.8 mN/m; (328.1 K) 49.1 ± 0.8 mN/m; (338.1 K) 48.1 ± 0.6 mN/m; (342.7 K) 47.7 ± 0.6 mN/m.
In the case of `CCn1cc[n+](C)c1.COP(=O)([O-])OC` [1-ethyl-3-methylimidazolium dimethylphosphate], the surface tension liquid-gas (308.2 K) is recorded as 45.3 ± 0.9 mN/m; the surface tension liquid-gas (318 K) was found to be 44.7 ± 0.8 mN/m; the surface tension liquid-gas (328.7 K) stood at 44.4 ± 0.7 mN/m; the surface tension liquid-gas (338.6 K) stood at 43.8 ± 0.7 mN/m; the surface tension liquid-gas (343.5 K) was found to be 43.3 ± 0.6 mN/m.
For `CCn1cc[n+](C)c1.Cc1ccc(S(=O)(=O)[O-])cc1` [1-ethyl-3-methylimidazolium 4-methylbenzenesulfonate], the surface tension liquid-gas stood at 45.2 ± 0.6 mN/m (308.1 K); 44.2 ± 0.6 mN/m (318 K); 43.6 ± 0.6 mN/m (328.5 K); 43 ± 0.6 mN/m (338.3 K); 42.7 ± 0.6 mN/m (343.2 K).
For `CCn1cc[n+](C)c1.N#C[S-]` [1-ethyl-3-methylimidazolium thiocyanate], the surface tension liquid-gas runs as follows: (298.2 K) 53.3 ± 1 mN/m; (308.2 K) 52.3 ± 1 mN/m; (318.2 K) 51.8 ± 0.9 mN/m; (328.2 K) 50.5 ± 0.8 mN/m; (338.3 K) 49.8 ± 1.1 mN/m; (343.2 K) 49.4 ± 0.8 mN/m.
As for `CCn1cc[n+](C)c1.CO[PH](=O)[O-]` [1-ethyl-3-methylimidazolium methyl phosphonate], the surface tension liquid-gas runs as follows: (298.2 K) 49 ± 0.6 mN/m; (308.4 K) 48.3 ± 0.6 mN/m; (318 K) 47.9 ± 0.8 mN/m; (328.6 K) 47.2 ± 0.6 mN/m; (338.5 K) 46.7 ± 0.6 mN/m; (343.1 K) 46.3 ± 0.5 mN/m.
For the molecule `CCn1cc[n+](C)c1.N#CN=C=[N-]` [1-ethyl-3-methylimidazolium dicyanamide], the surface tension liquid-gas by setting is: (298.3 K) 57.5 ± 0.8 mN/m; (308.2 K) 56.6 ± 1 mN/m; (318.3 K) 56.4 ± 0.8 mN/m; (328.2 K) 56 ± 0.7 mN/m; (338.5 K) 55 ± 0.8 mN/m; (343.4 K) 54.9 ± 0.8 mN/m.
As to `CCCCn1cc[n+](C)c1.O=S(=O)([O-])C(F)(F)F` [1-butyl-3-methylimidazolium trifluoromethanesulfonate], the surface tension liquid-gas is 35.86 ± 0.4 mN/m (298.1 K); 35.29 ± 0.4 mN/m (307.9 K); 34.95 ± 0.4 mN/m (318 K); 34.64 ± 0.41 mN/m (328.1 K); 34.3 ± 0.38 mN/m (338.3 K).
For the molecule `CCCC[n+]1ccn(C)c1.O=S(=O)([N-]S(=O)(=O)C(F)(F)F)C(F)(F)F`, the surface tension liquid-gas by setting is: (298.2 K) 33.35 ± 0.38 mN/m; (308.2 K) 32.85 ± 0.37 mN/m; (318.2 K) 32.25 ± 0.37 mN/m; (328.2 K) 31.69 ± 0.36 mN/m; (338.2 K) 31.14 ± 0.35 mN/m; (343.2 K) 30.76 ± 0.35 mN/m.
On to `CC(=O)[O-].CCn1cc[n+](C)c1` [1-ethyl-3-methylimidazolium acetate], for which the surface tension liquid-gas is on record as 47.06 ± 0.5 mN/m (298.1 K); 46.53 ± 0.5 mN/m (308.2 K); 45.89 ± 0.49 mN/m (318.2 K); 45.33 ± 0.48 mN/m (328.2 K); 44.74 ± 0.48 mN/m (338.3 K).
